Measurements reported in patent publication US20240269204A1, “COMPOSITION FOR ALLEVIATING SKIN DAMAGE CAUSED BY HYPOXIA CONTAINING SACCHAROMYCES CEREVISIAE STRAIN” (AMOREPACIFIC CORPORATION, priority 2023, published 2024).

Assays:
COX2 = COX2 gene expression by qPCR in CoCl2-induced hypoxic keratinocytes; assay type: cell-based; settings: keratinocytes (HEKn) treated with 200 μM CoCl2, EGCG at 2.5 ppm, cultured for 18 hours
Experimental: (§1) First, keratinocytes (HEKn) (onza, Switzerland) were treated with 200 μM CoCl2 to induce a hypoxic environment. After that, the expression level of hypoxia-inducible factor 1-alpha (HIF1A) that was known to be expressed under hypoxia was compared with that before the treatment with CoCl2 (CTL in FIG. 1) to confirm that the expression level of HIF1A increased compared with that before the treatment with CoCl2 (FIG. 1), and thus skin (keratinocytes) damaged by hypoxia (hereinafter referred to as hypoxic keratinocytes) was prepared. Thereafter, in order to verify the effect of the strain isolated in Example 1 on the alleviation of skin damage due to hypoxia, the hypoxic keratinocytes were treated with the extract prepared in Example 2 at various concentrations and then cultured for 18 hours. […] Specifically, 10 μL of universal master mix (Taqman 2X Universal PCR mix, Applied Biosystems, Cat. No. 4304437) and 1 μL of TaqMan probe were added, 5 μL of CDNA was added to obtain a total volume of 20 μL, and PCR was performed using the Applied biosystem 7500 fast real time PCR system and the provided standard protocol. The expression of MMP1, an aging-related gene, and COX2, an inflammation-related gene, was examined through qPCR, and the results are illustrated in FIGS. 2 and 3. At this time, EGCG was used as Comparative Example. […]

MMP1 = MMP1 gene expression by qPCR in CoCl2-induced hypoxic keratinocytes; assay type: cell-based; settings: keratinocytes (HEKn) treated with 200 μM CoCl2, 2.5 µM EGCG, cultured for 18 hours
Experimental: as §1

Q: What does the source list for `O=C(O[C@@H]1Cc2c(O)cc(O)cc2O[C@@H]1c1cc(O)c(O)c(O)c1)c1cc(O)c(O)c(O)c1` [EGCG]?
A: inhibition of COX2 overexpressed by hypoxia (expression level of COX2, FIG. 3) (COX2): cannot inhibit expression of COX2 overexpressed by hypoxia; inhibition of MMP1 overexpressed by hypoxia (expression level of MMP1, FIG. 2) (MMP1): cannot inhibit MMP1 overexpressed by hypoxia
